According to patent US20190117994A1, “METHODS USEFUL FOR REMODELING MAXILLOFACIAL BONE USING LIGHT THERAPY AND A FUNCTIONAL APPLIANCE” (Biolux Research Ltd., priority 2010, published 2019):

Experiments:
[1] = daily oral supplement of 2,000 IU to 6,000 IU in adults, within 3 months; cited from earlier work
[2] = test system: teeth and alveolar bone of an adult patient; experiment: Example 3: orthodontic treatment with daily light and oral vitamin D3 supplementation; format: in vivo; settings: passive (retention) phase, 2000 IU to 12,000 IU per day oral vitamin D3, light once per week at about 625 nm
Protocol: An adult patient is tested for Vitamin D3 blood serum levels at the same time as their routine orthodontic examination and records appointment. The patient's diagnosis is Class I mild crowding with 4 mm of crowding on the upper arch and 4 mm on the lower arch. An orthodontic treatment plan is formulated to include the installation of a fixed orthodontic appliance with some mild expansion of the upper and lower arches.
The patient self-administers oral oil-based vitamin D3 capsules of 6000 IU per day for 3 months to increase their vitamin D3 serum levels. Laboratory serum testing is optionally performed again after 3 months of vitamin D3 supplementation. The patient maintains or adjusts their oral dose of vitamin D3 based on their subsequent lab results.
Orthodontic treatment is started either after the 3 month period or anytime prior. The patient has conventional fixed orthodontic brackets, and bands placed on their teeth with an initial 0.016 inch NiTi wire tied in place with silcone ligatures. […]
At a passive state of orthodontic treatment, i.e., retention phase, a fixed retention orthodontic appliance is installed on the patient's teeth. […] The dosage can be determined based on vitamin D blood serum levels which can be measured periodically to determine dosing. […]

Compound	blood levels of vitamin D [1]	alveolar bone density around the teeth [2]
vitamin D	40 ng/mL	–
C=C1CC[C@H](O)C/C1=C/C=C1\CCC[C@]2(C)[C@@H]([C@H](C)CCCC(C)C)CC[C@@H]12 [vitamin D3]	–	increased
